The values that follow come from ChEMBL document CHEMBL4387733, “Design, synthesis and biological evaluation of indane derived GPR40 agoPAMs” (Bioorg Med Chem Lett, 2019).

Series [1] can be described thus: Drug metabolism in pH 7.4 potassium phosphate buffer assessed as TAK-875 formation at 10 uM measured after 5 hrs.
Series [2] is described as follows: Stability of the compound in pH 7.4 potassium phosphate buffer at 10 uM measured after 5 hrs. It is filed as physicochemical. Conditions: pH 7.4, 5 h.
The nature of series [3]: Solubility of the compound in FASSIF. Format: physicochemical.
Series [4] concerns the target T1, Free fatty acid receptor 1 (Homo sapiens, UniProt O14842). The experiment in a line: Positive allosteric modulation of recombinant human GPR40 expressed in HEK293 cells assessed as increase in [3H]-myo-inositol phosphate accumulation measured after 60 mins in absence of human serum by microbeta counting method relative to control. Format: functional, cell-based. Details: concentration or dose not given beside the values.

Series [5] can be described thus: Protein binding in human plasma assessed as unbound fraction level. It is filed as ADME, cell-free.
Series [6] deals with T1, Free fatty acid receptor 1. The experiment in a line: Positive allosteric modulation of recombinant human GPR40 expressed in HEK293 cells assessed as increase in [3H]-myo-inositol phosphate accumulation measured after 60 mins in presence of 100% human serum by microbeta counting method. Format: functional, cell-based.
For series [7], the system named is Rattus norvegicus. The experiment in a line: Hypoglycemic activity in Sprague-Dawley rat assessed as reduction in blood glucose AUC at 3 mg/kg, ip measured after 3 hrs by IPGTT relative to control. It is filed as functional.
Series [8] can be described thus: Volume of distribution in Wistar Han rat at 1 mg/kg, iv or 2 mg/kg, po. Format: ADME, organism-based. Conditions: in vivo.
Series [9] is described as follows: Clearance in Wistar Han rat at 1 mg/kg, iv or 2 mg/kg, po. It is filed as ADME, organism-based. Conditions: in vivo.
Series [10] concerns the target T1, Free fatty acid receptor 1. The experiment in a line: Positive allosteric modulation of recombinant human GPR40 expressed in HEK293 cells assessed as increase in [3H]-myo-inositol phosphate accumulation measured after 60 mins in presence of 100% human serum by microbeta counting method relative to control. It is filed as functional, cell-based.
The nature of series [11]: Half-life in Wistar Han rat at 1 mg/kg, iv or 2 mg/kg, po. It is filed as ADME, organism-based. Conditions: in vivo.
Series [12] is described as follows: Oral bioavailability in Wistar Han rat at 2 mg/kg. It is filed as ADME, organism-based. Conditions: in vivo.
Series [13] can be described thus: Total drug level in Wistar Han rat plasma at 1 mg/kg, iv or 2 mg/kg, po measured at 3 hrs. It is filed as ADME, organism-based.
The nature of series [14]: Drug level in Wistar Han rat assessed as unbound fraction at 1 mg/kg, iv or 2 mg/kg, po. Format: ADME, organism-based. Conditions: in vivo.
Series [15] is described as follows: Dose normalized AUC in Wistar Han rat at 2 mg/kg, po. It is filed as ADME, organism-based. Conditions: in vivo.
The nature of series [16]: Unbound drug level in Wistar Han rat plasma at 1 mg/kg, iv or 2 mg/kg, po measured at 3 hrs. Format: ADME, organism-based. Conditions: in vivo.
Series [17] in a line: Cmax in Wistar Han rat at 1 mg/kg, iv or 2 mg/kg, po. Format: ADME, organism-based. Conditions: in vivo.
Series [18] deals with T1, Free fatty acid receptor 1. Kind of series: Positive allosteric modulation of recombinant human GPR40 expressed in HEK293 cells assessed as increase in [3H]-myo-inositol phosphate accumulation measured after 60 mins in absence of human serum by microbeta counting method. It is filed as functional, cell-based.
In series [19] the target is T1, Free fatty acid receptor 1. Kind of series: Agonist activity at GPR40 (unknown origin) assessed as […] in IP1 accumulation. It is filed as functional.
For series [20], the system named is Rattus norvegicus. Kind of series: Hypoglycemic activity in Sprague-Dawley rat assessed as reduction in blood glucose AUC at 10 mg/kg, po pretreated for 1 hr followed by glucose challenge by OGTT relative to control. It is filed as functional. Also on record: scale not given: the % may be the effect or the level left.

Converted amounts (≈) assume the structure as drawn.

T1 sequence (O14842 whole entry): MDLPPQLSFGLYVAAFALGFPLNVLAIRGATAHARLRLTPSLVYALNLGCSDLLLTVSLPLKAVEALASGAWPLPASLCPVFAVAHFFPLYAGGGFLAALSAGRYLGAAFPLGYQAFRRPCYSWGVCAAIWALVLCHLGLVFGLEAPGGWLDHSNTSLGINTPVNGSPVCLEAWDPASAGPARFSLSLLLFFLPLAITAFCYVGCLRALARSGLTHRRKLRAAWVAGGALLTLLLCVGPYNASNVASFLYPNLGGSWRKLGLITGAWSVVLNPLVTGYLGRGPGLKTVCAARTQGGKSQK

With `Cc1cc(OCCCS(C)(=O)=O)cc(C)c1-c1cccc(COc2ccc3c(c2)OC[C@H]3CC(=O)OC2O[C@H](C(=O)O)[C@@H](O)[C@H](O)[C@H]2O)c1` (stereo partly drawn), the Drug metabolism result in series [1] is listed as “Metabolite detected”. In addition, the Stability result in series [2] was “Unstable”.
Molecule `COc1ccc(F)c(-c2ccc([C@@H]3CCc4ccc([C@H](C5CC5)[C@H](C)C(=O)O)cc4O3)cc2)c1` returned a solubility in series [3] of 125 µM (≈ 57.6 µg/mL).
On to `COc1cc(-c2ccc3c(c2)CC[C@H]3Oc2cccc([C@H](C3CC3)[C@H](C)C(=O)O)c2F)c(F)cn1`, for which the Activity in [4] amounted to 342%; in series [10], 318%. In addition, the Fu in series [5] and in series [14] was 0.05% in each case. Also, the EC50 was found to be 245 nM in series [6] and 2 nM in series [18]. In addition, the fEC50 in series [6] was determined as 0.08 nM. Moreover, the inhibition in vivo at 3 mg/kg in the series on Rattus norvegicus [7] is 49%. In addition, the Vd in series [8] is 0.78 L/kg. In addition, the clearance in series [9] is 2.9 mL/min/kg. Further, in series [11], the half-life is 306 min. Further, the bioavailability in series [12] was greater than 100%. In [13], this molecule showed a concentration at 3 h of 600 nM. Further, the AUC/dose in series [15] was found to be 36.2 µM·h. Also, the “Cp(f)” value in series [16] stood at 0.3 nM. In addition, in [17], the Cmax turned out to be 6.3 µM.
Turning to `COc1ccc(F)c(-c2cc3c(cn2)[C@H](Oc2cccc([C@H](C4CC4)[C@H](C)C(=O)O)c2)CC3)c1`, the Activity in series [4] turned out to be 457%. In series [5], the Fu turned out to be 0.13%. For the same molecule, in series [6], the EC50 worked out at 3320 nM and the fEC50 was determined as 4.3 nM. The fold change (FC) in series [19] was less than 100. Further, the Activity in [10] came to 221%.
For `COc1ccc(F)c(-c2ccc3c(c2)CC[C@H]3Oc2cccc([C@H](C3CC3)[C@H](C)C(=O)O)c2F)c1`, the Activity in series [4] was 395%; in [10], 264%. Besides, the Fu in series [5] and in series [14] was 0.02% each time. Moreover, the figures for the EC50 in [6] and in series [18] were 127 nM and 3 nM, respectively. In addition, the fEC50 in series [6] worked out at 0.03 nM. The inhibition in vivo at 3 mg/kg with Rattus norvegicus [7] was 10%. Also, the Vd in series [8] was 0.85 L/kg. In series [9], this molecule displayed a clearance of 2.8 mL/min/kg. For the same molecule, the half-life in series [11] is 186 min. In addition, in series [12], the bioavailability was greater than 100%. In addition, the concentration at 3 h in series [13] turned out to be 2500 nM. In series [15], this molecule had an AUC/dose of 9.3 µM·h. Also, the “Cp(f)” value in series [16] is given as 0.5 nM. In series [17], this molecule displayed a Cmax of 2.9 µM.
With `COc1cc(-c2ccc3c(c2)CC[C@H]3Oc2cccc([C@H](C3CC3)[C@H](C)C(=O)O)c2)c(F)cn1`, the Activity in [4] was 472%; in series [10], 446%. Further, the Fu in series [5] and in series [14] was 0.03% each time. Also, the EC50 was 867 nM in series [6] and 3 nM in [18]. Besides, the fEC50 in [6] is 0.26 nM. Moreover, the inhibition in vivo at 3 mg/kg in the series with Rattus norvegicus [7] was 94%. In addition, the Vd in series [8] worked out at 0.18 L/kg. For the same molecule, in series [9], the clearance was 0.6 mL/min/kg. The half-life in series [11] was 234 min. Moreover, the bioavailability in series [12] was found to be 54%. Also, in series [13], the concentration at 3 h amounted to 1900 nM. Moreover, the AUC/dose in series [15] stood at 99.9 µM·h. Further, the “Cp(f)” value in [16] is listed as 0.57 nM. Also, the Cmax in [17] was determined as 10.7 µM.
With `O=C1NC(=O)C(C2CCOc3cc(Oc4ccc(C(F)(F)F)cc4Cl)ccc32)S1` (stereo not drawn), the Activity with Rattus norvegicus [20] turned out to be 97%.
